Measured values from PubChem BioAssay (NCI).
“And” between values parts separate entries of the source, which are not always exact repeats. Equal entries are not always repeated.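 1) Cells in 96-well plates. 2) Compound, 48 h, 5 concentrations. 3) Linear interpolation between surrounding doses. 4) Unreached endpoint = highest concentration. Abbreviation: GI50, concentration required for 50% inhibition of growth. At the TGI there is no net growth.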

Legend:
Experiment in all cases: NCI anticancer screen, dose series, 48 h
NCI/ADR-RES ovarian = test system: NCI/ADR-RES ovarian
PC-3 prostate = test system: PC-3 prostate
DU-145 prostate = test system: DU-145 prostate
SF-539 CNS = test system: SF-539 CNS
ACHN renal = test system: ACHN renal
CCRF-CEM leukemia = test system: CCRF-CEM leukemia
HOP-62 NSCLC = test system: HOP-62 NSCLC
OVCAR-4 ovarian = test system: OVCAR-4 ovarian
NCI-H23 lung = test system: NCI-H23 lung
NCI-H226 lung = test system: NCI-H226 lung
T-47D breast = test system: T-47D breast
MOLT-4 leukemia = test system: MOLT-4 leukemia
MALME-3M melanoma = test system: MALME-3M melanoma
RPMI-8226 leukemia = test system: RPMI-8226 leukemia
MCF7 breast = test system: MCF7 breast
HOP-92 NSCLC = test system: HOP-92 NSCLC
MDA-MB-231 breast = test system: MDA-MB-231 breast
SNB-19 CNS = test system: SNB-19 CNS
NCI-H522 lung = test system: NCI-H522 lung
A498 renal = test system: A498 renal
786-0 renal = test system: 786-0 renal
K-562 leukemia = test system: K-562 leukemia
SK-MEL-2 melanoma = test system: SK-MEL-2 melanoma
COLO 205 colon = test system: COLO 205 colon
OVCAR-5 ovarian = test system: OVCAR-5 ovarian
U251 CNS = test system: U251 CNS
SF-295 CNS = test system: SF-295 CNS
OVCAR-3 ovarian = test system: OVCAR-3 ovarian
HL-60(TB) leukemia = test system: HL-60(TB) leukemia

With `CN1CCN(CCOc2cc(OC3CCOCC3)c3c(Nc4c(Cl)ccc5c4OCO5)ncnc3c2)CC1` the GI50 (NCI/ADR-RES ovarian) was 10.6 µM and 8.91 µM, the TGI (NCI/ADR-RES ovarian) was 56.8 µM and > 10 µM and the GI50 (PC-3 prostate) was 19.3 µM and > 10 µM. For the same molecule, the TGI (PC-3 prostate) was over 100 µM, the GI50 (DU-145 prostate) was 3.72 µM and 7.29 µM and the TGI (DU-145 prostate) was 39.7 µM and > 10 µM. For the same molecule, the GI50 (SF-539 CNS) was 6.5 µM and 6.41 µM, the TGI (SF-539 CNS) was 21.1 µM and > 10 µM and the GI50 (ACHN renal) was 0.348 µM and 0.395 µM. The TGI (ACHN renal) was 14 µM and > 10 µM, the GI50 (CCRF-CEM leukemia) was 21.5 µM and > 10 µM and the TGI (CCRF-CEM leukemia) was 76.3 µM and > 10 µM. For the same molecule, the GI50 (HOP-62 NSCLC) was 5.48 µM and 8.53 µM, the TGI (HOP-62 NSCLC) was 26.7 µM and > 10 µM and the GI50 (OVCAR-4 ovarian) was 13.5 µM and > 10 µM. The TGI (OVCAR-4 ovarian) was 34.7 µM and > 10 µM, the GI50 (NCI-H23 lung) was 12.2 µM and > 10 µM and the TGI (NCI-H23 lung) was 57.1 µM and > 10 µM. For the same molecule, the GI50 (NCI-H226 lung) was 15.7 µM and > 10 µM, the TGI (NCI-H226 lung) was 38.9 µM and > 10 µM and the GI50 (T-47D breast) was 1.23 µM and 0.286 µM. The TGI (T-47D breast) was 22.3 µM and > 10 µM, the GI50 (MOLT-4 leukemia) was 14.6 µM and > 10 µM and the TGI (MOLT-4 leukemia) was 49.2 µM and > 10 µM. For the same molecule, the GI50 (MALME-3M melanoma) was 14.1 µM and > 10 µM, the TGI (MALME-3M melanoma) was 30.1 µM and > 10 µM and the GI50 (RPMI-8226 leukemia) was 19.4 µM and > 10 µM. The TGI (RPMI-8226 leukemia) was 63.4 µM and > 10 µM, the GI50 (MCF7 breast) was 4.72 µM and > 10 µM and the TGI (MCF7 breast) was 27.4 µM and > 10 µM. The GI50 (HOP-92 NSCLC) was 0.679 µM and 0.139 µM, the TGI (HOP-92 NSCLC) was 11.4 µM and 5.64 µM and the GI50 (MDA-MB-231 breast) was 6.95 µM and 8.97 µM. The TGI (MDA-MB-231 breast) was 24.1 µM and > 10 µM, the GI50 (SNB-19 CNS) was 12.1 µM and > 10 µM and the TGI (SNB-19 CNS) was over 100 µM. The GI50 (NCI-H522 lung) was 0.165 µM and 0.346 µM, the TGI (NCI-H522 lung) was 2.5 µM and > 10 µM and the GI50 (A498 renal) was 0.529 µM and 1.37 µM. The TGI (A498 renal) was 4.52 µM and > 10 µM, the GI50 (786-0 renal) was 4.47 µM and > 10 µM and the TGI (786-0 renal) was 24.1 µM and > 10 µM. For the same molecule, the GI50 (K-562 leukemia) was 0.382 µM and 0.47 µM, the TGI (K-562 leukemia) was 9.24 µM and > 10 µM and the GI50 (SK-MEL-2 melanoma) was 16.6 µM and > 10 µM. The TGI (SK-MEL-2 melanoma) was 31.8 µM and > 10 µM, the GI50 (COLO 205 colon) was 9.81 µM and 7.76 µM and the TGI (COLO 205 colon) was 24 µM and > 10 µM. The GI50 (OVCAR-5 ovarian) was 1.13 µM and 1.35 µM, the TGI (OVCAR-5 ovarian) was 23.9 µM and > 10 µM and the GI50 (U251 CNS) was 11.2 µM and > 10 µM. For the same molecule, the TGI (U251 CNS) was 31.1 µM and > 10 µM, the GI50 (SF-295 CNS) was 5.83 µM and > 10 µM and the TGI (SF-295 CNS) was 25.3 µM and > 10 µM. For the same molecule, the GI50 (OVCAR-3 ovarian) was 3.7 µM and 5.55 µM, the TGI (OVCAR-3 ovarian) was 22.2 µM and > 10 µM and the GI50 (HL-60(TB) leukemia) was 18.7 µM and > 10 µM. For the same molecule, the TGI (HL-60(TB) leukemia) was 37.8 µM and > 10 µM.
